Patent US9249128B2 (priority 2010, dated 2016)

Columns and labels:
KIAA1363 [1] = molecular target: T1, KIAA1363 (Homo sapiens, UniProt Q6PIU2); experiment: Inhibition of FP-rhodamine labeling of KIAA1363 by JW551 (FIG. 17); format: biochemical; conditions: selective over other serine hydrolase enzymes
T1 sequence (Q6PIU2 1-408): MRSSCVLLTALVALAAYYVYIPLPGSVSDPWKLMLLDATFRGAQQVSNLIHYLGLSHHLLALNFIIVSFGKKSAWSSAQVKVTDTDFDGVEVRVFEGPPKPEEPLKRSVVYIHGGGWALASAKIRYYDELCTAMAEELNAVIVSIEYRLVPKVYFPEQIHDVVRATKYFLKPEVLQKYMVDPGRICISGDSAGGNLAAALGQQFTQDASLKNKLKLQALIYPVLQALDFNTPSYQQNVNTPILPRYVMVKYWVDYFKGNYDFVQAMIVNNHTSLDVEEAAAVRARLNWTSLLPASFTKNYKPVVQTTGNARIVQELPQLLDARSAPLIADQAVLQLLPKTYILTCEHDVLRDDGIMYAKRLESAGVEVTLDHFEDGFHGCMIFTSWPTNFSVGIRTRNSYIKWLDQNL

KIAA1363 [2] = molecular target: T2, KIAA1363 (Mus musculus, UniProt Q8BLF1); experiment: In vivo labeling of KIAA1363 by JW576 in mouse heart (gel-based ABPP)
T2 construct: ABPP analysis of KIAA1363 activity in mouse brain membrane proteome; from tissue; host or cells: mouse brain (membrane fraction)
T2 sequence (Q8BLF1 1-408): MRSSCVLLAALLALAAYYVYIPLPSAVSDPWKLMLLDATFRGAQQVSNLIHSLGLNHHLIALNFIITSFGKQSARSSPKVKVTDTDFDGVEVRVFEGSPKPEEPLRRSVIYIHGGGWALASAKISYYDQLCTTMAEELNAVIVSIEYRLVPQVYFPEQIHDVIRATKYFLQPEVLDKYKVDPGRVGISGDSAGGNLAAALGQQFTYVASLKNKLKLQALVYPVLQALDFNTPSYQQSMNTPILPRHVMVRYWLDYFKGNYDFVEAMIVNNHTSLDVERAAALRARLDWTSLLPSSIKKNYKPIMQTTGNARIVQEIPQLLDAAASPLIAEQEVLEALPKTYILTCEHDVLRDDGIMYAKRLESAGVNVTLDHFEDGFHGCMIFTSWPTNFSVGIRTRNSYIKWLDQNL
Experimental: (§1) For ABPP experiments, cell lysate and tissue proteomes were treated with 1 μM FP-rhodamine for 30 min at room temperature ([…]). Reactions were quenched with one volume of standard 4×SDS/PAGE loading buffer (reducing), separated by SDS/PAGE (10% acrylamide), and visualized in-gel with a Hitachi FMBio IIe flatbed fluorescence scanner (MiraiBio). For experiments involving a preincubation with JW576 in the presence or absence of the non-fluorescent competitor JW480, the reactions were prepared without FP-rhodamine. JW576 were added at the indicated concentration and incubated for the indicated time at 37° C. FP-rhodamine was then added and the reaction was carried out exactly as described above.
Tissues were dounce-homogenized in PBS, pH 7.5, followed by a low-speed spin (1,400 g, 5 min) to remove debris. The supernatant was then subjected to centrifugation (64,000 g, 45 min) to provide the cytosolic fraction in the supernatant and the membrane fraction as a pellet. The pellet was washed and resuspended in PBS buffer by sonication. Total protein concentration in each fraction was determined using a protein assay kit (Bio-Rad). Samples were stored at −80° C. until use.
JW576 was prepared as a homogenoeus PEG solution by vortexing, sonicating, and gently heating neat compound directly into PEG300 (Fluka) (4 mg ml^−1 final concentration. Male C57BI/6J (<6 months old, 20-28 g) and Male KIAA1363-KO mice were treated with JW576 or a PEG vehicle by intraperitoneal injection. After the indicated amount of time, mice were anesthetized with isoflurane and killed by decapitation. Tissues were removed, flash frozen in liquid N2 and stored at −80° C. prior to processing for ABPP gel analysis as indicated above. Animal experiments were conducted in accordance with the guidelines of the institutional Animal Care and Use Committee of The Scripps Research Institute.

KIAA1363 [3] = molecular target: T1, KIAA1363; experiment: Gel-based competitive ABPP of living PC3 cells, in situ treatment; format: cell-based; parameters: PC3 cancer cells, which have high endogenous KIAA1363 levels; endogenous in cells; host or cells: PC3
Experimental: Inhibitors were dissolved in DMSO and diluted into media or buffer prior to cell or proteome treatment, respectively. For in vitro treatment, final DMSO concentration was 4%. For in situ treatments of cells for ABPP, lipid measurements, migration, cell-survival, and invasion assays, 2×10^6 cells were seeded in 6 cm dishes (˜100% confluency) 24 h prior to inhibitor pre-treatment (in DMSO at 0.1% final concentration) in serum-free media (3 mL) for the designated time before harvesting cells for ABPP or lipid measurements or before the initiation of migration, cell-survival, and invasion assays.
For ABPP experiments, cell lysate and tissue proteomes were treated with 1 μM FP-rhodamine for 30 min at room temperature (50 μL total reaction volume) as described previously (Nomura et al., 2010). Reactions were quenched with one volume of standard 4×SDS/PAGE loading buffer (reducing), separated by SDS/PAGE (10% acrylamide), and visualized in-gel with a Hitachi FMBio IIe flatbed fluorescence scanner (MiraiBio). Inhibitors were preincubated prior (30 min or 4 h at 37° C. in vitro or in situ, respectively) to the addition of FP-rhodamine.
JW576 was dissolved in DMSO and diluted into media or buffer prior to cell or proteome treatment, respectively. For in vitro treatment, final DMSO concentration was 4%. For in situ treatments of cells for ABPP, 2×10^6 cells were seeded in 6 cm dishes (100% confluency) 24 hr prior to JW576 pretreatment with or without JW480 (in DMSO at 0.1% final concentration) in serum-free media (3 ml) for the designated time before harvesting cells for ABPP.
as §1

KIAA1363 [4] = molecular target: T1, KIAA1363; experiment: 2-acetyl MAGE hydrolytic activity assay in cancer cells treated in situ; format: cell-based; parameters: PC3 cancer cells, which have high endogenous KIAA1363 levels; endogenous in cells; host or cells: PC3 (2-acetyl MAGE assay also DU145 and SKOV3)
Experimental: Cells were pretreated with KIAA1363 inhibitors in situ (for 4 hr in serum-free F-12K media before harvesting cells by scraping) or in vitro (for 30 min at 37° C. in PBS) before addition of 2-acetyl MAGE (100 μM) to cell lysates at room temperature for 30 min in a volume of 200 μL. Reactions were quenched with 600 μL 2:1 chloroform:methanol and 10 nmol of C12:0 MAGE internal standard was added. The organic layer was extracted and 30 μL injected into an Agilent 1100-MSD LC-MS. LC-MS settings were as previously described (Chiang et al., 2006). Product levels (C16:0 MAGE) were quantified in relation to the internal standard. Specific activity was determined during the linear phase of enzymatic reactions (i.e., less than 20% substrate utilized).
Cell lysates (20 μg) in Tris buffer were then incubated with lipid (100 mM, e.g., 2-acetyl MAGE for KIAA1363 activity) at room temperature for 30 min in a volume of 200 ml. Reactions were quenched with 600 ml 2:1 chloroform:methanol and 10 nmol of C12:0 MAGE internal standard was added. […] Product levels (C16:0 MAGE for KIAA1363 activity) were quantified in relation to internal standard levels and standard curves generated between varying lipid concentration versus constant internal standard levels. Specific activity was determined during the linear phase of enzymatic reactions (i.e., less than 20% substrate utilized)

| SMILES | IC50 for inhibition of FP-rhodamine labeling of KIAA1363 (KIAA1363 [1]) | Labeling of KIAA1363 in heart (KIAA1363 [2]; C57BI/6J mice, 5-40 mg/kg, i.p., 4 hr) | Time to near-maximal in vivo labeling signals (KIAA1363 [2]; JW576 10 mg/kg, post-dosing) [min] | KIAA1363 activity in heart by competitive ABPP with FP-Rh (KIAA1363 [2]; WT mice, JW576 10 mg/kg, 1 hr) | Selectivity for KIAA1363 in vivo (heart proteome) (KIAA1363 [2]; additional 70 kDa protein, likely ES1) | IC50 (KIAA1363 [3]) [nM] | Time to near-complete target modification (KIAA1363 [3]; JW576 1 μM, living PC3 cells) | Concentration at which other JW576-protein adducts were observed (trace levels) (KIAA1363 [3]; PC3 cells in situ, BODIPY fluorescence scan) [µM] | IC50 (KIAA1363 [4]) [nM] |
| --- | --- | --- | --- | --- | --- | --- | --- | --- | --- |
| CC(C)c1ccccc1OC(=O)NCCOc1ccc2c(C(F)(F)F)cc(=O)oc2c1 [JW551, 2-isopropylphenyl (2-((2-oxo-4-(trifluoromethyl)-2H-chromen-7-yl)oxy)ethyl)carbamate] | low micromolar |  |  |  |  |  |  |  |  |
| CC1=CC(C)=[N+]2C1=Cc1ccc(CCC(=O)NCCNC(=O)Oc3ccccc3C(C)C)n1[B-]2(F)F [JW576, 5,5-difluoro-7-(3-((2-(((2-isopropylphenoxy)carbonyl)amino)ethyl)amino)-3-oxopropyl)-1,3-dimethyl-5H-dipyrrolo[1,2-c:2′,1′-f][1,3,2]diazaborinin-4-ium-5-uide] |  | significant labeling | ≤ 30 | substantial reductions | only a single, faint additional probe target | 340 ± 150 | within an hour | ≥ 5 | 150 to 170 |
